Reference: ChEMBL document CHEMBL4002545, “Design, synthesis and antimicrobial evaluation of novel benzoxazole derivatives” (2017)
≈ marks a conversion by molar mass, not a printed value.

Key:
[1] = system: Staphylococcus aureus; experiment: Anti-bacterial activity against methicillin-resistant Staphylococcus aureus ATCC 700699 measured after 24 hrs by microtiter broth dilution method; format: functional; conditions: Mu50, 24 h
[2] = system: Candida albicans; experiment: microbe, parasite or virus in culture; format: functional; conditions: ATCC 10231, 24 h
Description: Anti-fungal activity against Candida albicans ATCC 10231 measured after 24 hrs by microtiter broth dilution method

[3] = system: Escherichia coli; experiment: Anti-bacterial activity against Escherichia coli ATCC 11303 measured after 24 hrs by microtiter broth dilution method; format: functional; conditions: ATCC 11303, 24 h
[4] = system: Staphylococcus aureus; experiment: Anti-bacterial activity against Staphylococcus aureus ATCC 10832 measured after 24 hrs by microtiter broth dilution method; format: functional; conditions: ATCC 10832, 24 h
[5] = system: Bacillus subtilis; experiment: Anti-bacterial activity against Bacillus subtilis ATCC 33712 measured after 24 hrs by microtiter broth dilution method; format: functional; conditions: ATCC 33712, 24 h
[6] = system: Bacillus subtilis; experiment: Potency index, ratio of sodium penicillin IC50 to compound IC50 for anti-bacterial activity against Bacillus subtilis ATCC 33712; format: functional
[7] = system: Bacillus subtilis; experiment: Potency index, ratio of Cefotaxime IC50 to compound IC50 for anti-bacterial activity against Bacillus subtilis ATCC 33712; format: functional
[8] = system: Bacillus subtilis; experiment: Potency index, ratio of Cefradine MIC to compound MIC for anti-bacterial activity against Bacillus subtilis ATCC 33712
[9] = system: Bacillus subtilis; experiment: Potency index, ratio of ceftazidime IC50 to compound IC50 for anti-bacterial activity against Bacillus subtilis ATCC 33712; format: functional

Compound	MIC [1]	MIC [2]	MIC [3]	MIC [4]	MIC [5]	Ratio IC50 [6]	Ratio IC50 [7]	Ratio MIC [8]	Ratio IC50 [9]
COc1cc(CCc2nc3cc(C[C@H](Oc4ccc(C(C)(C)C)cc4)C(=O)O)ccc3o2)cc(OC)c1OC	100 µg/mL (≈ 187 µM)	> 200 µg/mL	200 µg/mL (≈ 375 µM)	100 µg/mL (≈ 187 µM)	100 µg/mL (≈ 187 µM)				
Cc1oc(-c2ccccc2)nc1CCc1nc2cc(C[C@H](Oc3ccc(C(C)(C)C)cc3)C(=O)O)ccc2o1	0.78 µg/mL (≈ 1.49 µM)	> 200 µg/mL	1.56 µg/mL (≈ 2.97 µM)	1.56 µg/mL (≈ 2.97 µM)	0.78 µg/mL (≈ 1.49 µM)				
CCCCCCCc1nc2cc(C[C@H](Oc3ccc(C(C)(C)C)cc3)C(=O)O)ccc2o1	1.56 µg/mL (≈ 3.57 µM)	> 200 µg/mL	1.56 µg/mL (≈ 3.57 µM)	0.78 µg/mL (≈ 1.78 µM)	0.78 µg/mL (≈ 1.78 µM)				
CC(C)(O/N=C(\C(=O)N[C@@H]1C(=O)N2C(C(=O)[O-])=C(C[n+]3ccccc3)CS[C@H]12)c1csc(N)n1)C(=O)O [CEFTAZIDIME]	12.5 µg/mL (≈ 22.9 µM)		200 µg/mL (≈ 366 µM)	0.78 µg/mL (≈ 1.43 µM)	6.25 µg/mL (≈ 11.4 µM)				
CC(C)(C)c1ccc(O[C@@H](Cc2ccc3oc(CCc4ncco4)nc3c2)C(=O)O)cc1	200 µg/mL (≈ 460 µM)	> 200 µg/mL	> 200 µg/mL	> 200 µg/mL	200 µg/mL (≈ 460 µM)				
CC1=C(C(=O)O)N2C(=O)[C@@H](NC(=O)[C@H](N)C3=CCC=CC3)[C@H]2SC1 [CEPHRADINE]	50 µg/mL (≈ 143 µM)		25 µg/mL (≈ 71.5 µM)	25 µg/mL (≈ 71.5 µM)	50 µg/mL (≈ 143 µM)				
CC(=O)N1CCN(c2ccc(OCC3COC(Cn4ccnc4)(c4ccc(Cl)cc4Cl)O3)cc2)CC1 (stereo not drawn) [KETOCONAZOLE]		< 0.39 µg/mL							
CC1(C)S[C@@H]2[C@H](NC(=O)Cc3ccccc3)C(=O)N2[C@H]1C(=O)[O-].[Na+] [PENICILLIN G SODIUM]	3.12 µg/mL		0.78 µg/mL	3.12 µg/mL	0.195 µg/mL				
CC(C)c1ccc(CCc2nc3cc(C[C@H](Oc4ccc(C(C)(C)C)cc4)C(=O)O)ccc3o2)cc1	0.195 µg/mL (≈ 0.402 µM)	> 200 µg/mL	0.78 µg/mL (≈ 1.61 µM)	0.39 µg/mL (≈ 0.803 µM)	0.098 µg/mL (≈ 0.202 µM)	2	8 - 510	8 - 510	8 - 510
Clc1ccc(COC(Cn2ccnc2)c2ccc(Cl)cc2Cl)c(Cl)c1.O=[N+]([O-])O (stereo not drawn) [MICONAZOLE NITRATE]		1.56 µg/mL							
CC(C)(C)c1ccc(O[C@@H](Cc2ccc3oc(CCc4ccc(F)cc4)nc3c2)C(=O)O)cc1	1.56 µg/mL (≈ 3.38 µM)	> 200 µg/mL	1.56 µg/mL (≈ 3.38 µM)	1.56 µg/mL (≈ 3.38 µM)	0.39 µg/mL (≈ 0.845 µM)				
CC(C)Cc1nc2cc(C[C@H](Oc3ccc(C(C)(C)C)cc3)C(=O)O)ccc2o1		> 200 µg/mL	3.12 µg/mL (≈ 7.89 µM)		1.56 µg/mL (≈ 3.94 µM)				
CC(C)(C)c1ccc(O[C@@H](Cc2ccc3oc(CC4CCOCC4)nc3c2)C(=O)O)cc1		> 200 µg/mL	> 200 µg/mL		200 µg/mL (≈ 457 µM)				
CC(C)(C)c1ccc(O[C@@H](Cc2ccc3oc(CCc4cn5cc(C(F)(F)F)ccc5n4)nc3c2)C(=O)O)cc1	25 µg/mL (≈ 45.3 µM)	> 200 µg/mL	> 200 µg/mL	50 µg/mL (≈ 90.7 µM)	50 µg/mL (≈ 90.7 µM)				
CC(C)(C)c1ccc(O[C@@H](Cc2ccc3oc(CCc4ccccc4)nc3c2)C(=O)O)cc1	1.56 µg/mL (≈ 3.52 µM)	> 200 µg/mL	3.12 µg/mL (≈ 7.03 µM)	1.56 µg/mL (≈ 3.52 µM)	0.39 µg/mL (≈ 0.879 µM)				
CC(C)(C)c1ccc(O[C@@H](Cc2ccc3oc(CCc4cc5ccccc5o4)nc3c2)C(=O)O)cc1	0.78 µg/mL (≈ 1.61 µM)	> 200 µg/mL	0.78 µg/mL (≈ 1.61 µM)	0.78 µg/mL (≈ 1.61 µM)	0.39 µg/mL (≈ 0.807 µM)				
Cc1oc(-c2ccccc2)nc1CCCc1nc2cc(C[C@H](Oc3ccc(C(C)(C)C)cc3)C(=O)O)ccc2o1	1.56 µg/mL (≈ 2.9 µM)	> 200 µg/mL	3.12 µg/mL (≈ 5.79 µM)	1.56 µg/mL (≈ 2.9 µM)	3.12 µg/mL (≈ 5.79 µM)				
CO/N=C(\C(=O)N[C@@H]1C(=O)N2C(C(=O)O)=C(COC(C)=O)CS[C@H]12)c1csc(N)n1 [CEFOTAXIME]	3.12 µg/mL (≈ 6.85 µM)		200 µg/mL (≈ 439 µM)	3.12 µg/mL (≈ 6.85 µM)	0.78 µg/mL (≈ 1.71 µM)				
